Source: PubChem BioAssay (NCI)
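Five compound concentrations were applied to cells in 96-well plates for 48 hours; endpoints were derived by simple linear interpolation of the resulting dose-response curve. Abbreviation: GI50, concentration required for 50% inhibition of growth. TGI: total growth inhibition.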

What was measured:
Experiment in all cases: NCI tumour cell line growth inhibition, 48 h
COLO 205 colon = test system: COLO 205 colon
RXF 393 renal = test system: RXF 393 renal
SK-MEL-5 melanoma = test system: SK-MEL-5 melanoma
SK-MEL-28 melanoma = test system: SK-MEL-28 melanoma
OVCAR-4 ovarian = test system: OVCAR-4 ovarian
SK-MEL-2 melanoma = test system: SK-MEL-2 melanoma
HOP-92 NSCLC = test system: HOP-92 NSCLC
UACC-257 melanoma = test system: UACC-257 melanoma
T-47D breast = test system: T-47D breast
MCF7 breast = test system: MCF7 breast

Compound	GI50 (COLO 205 colon)	TGI (COLO 205 colon)	GI50 (RXF 393 renal)	TGI (RXF 393 renal)	GI50 (SK-MEL-5 melanoma)	TGI (SK-MEL-5 melanoma)	GI50 (SK-MEL-28 melanoma)	TGI (SK-MEL-28 melanoma)	GI50 (OVCAR-4 ovarian)	TGI (OVCAR-4 ovarian)	GI50 (SK-MEL-2 melanoma)	TGI (SK-MEL-2 melanoma)	GI50 (HOP-92 NSCLC)	TGI (HOP-92 NSCLC)	GI50 (UACC-257 melanoma)	TGI (UACC-257 melanoma)	GI50 (T-47D breast)	TGI (T-47D breast)	GI50 (MCF7 breast)	TGI (MCF7 breast)
COc1ccc(OC)c(-c2nc3sccn3c2/C=C2/C(=O)Nc3ccc(Cl)cc32)c1	18.5 µM	39.5 µM	27.6 µM	> 100 µM	17.4 µM	33.1 µM	20.6 µM	39.8 µM	26.8 µM	73.9 µM	17.5 µM	35.2 µM	24.4 µM	> 100 µM	21.4 µM	44.3 µM	26.6 µM	70.1 µM	27.2 µM	85 µM
Nc1ncnc2c1c(C(F)(F)F)cn2[C@@H]1O[C@H](CO)[C@@H](O)[C@H]1O	0.0731 µM	1.4 µM	0.237 µM	1.67 µM	0.402 µM	5.02 µM	1.29 µM	6.13 µM	1.03 µM	> 100 µM	0.953 µM	2.79 µM	0.222 µM	6.62 µM	0.306 µM	–	0.104 µM	70.8 µM	0.0405 µM	> 86.3 µM
COc1ccc(SC2c3cc(OC)c(OC)cc3Oc3nc(N)c(C#N)c(N)c32)cc1 (centres undefined)	1.29 µM	2.65 µM	0.74 µM	2.01 µM	1.5 µM	2.82 µM	1.47 µM	2.91 µM	1.33 µM	2.73 µM	1.36 µM	2.8 µM	1.24 µM	2.72 µM	1.87 µM	3.32 µM	1.3 µM	3.31 µM	0.454 µM	2.1 µM
CC(=O)Oc1ccc(OC(C)=O)c2ccccc12	15 µM	28.2 µM	7.57 µM	20.2 µM	13.5 µM	26.4 µM	13.3 µM	26.5 µM	1.71 µM	3.1 µM	12.8 µM	27 µM	1.49 µM	3.05 µM	3.95 µM	13.8 µM	1.21 µM	3.16 µM	7.98 µM	27.6 µM
CCN(CC)CCN1C(=O)c2c(c(C)c3c(oc4cc(O)ccc43)c2C)C1=O	2.18 µM	5.77 µM	1.33 µM	2.69 µM	1.56 µM	2.92 µM	1.58 µM	3.03 µM	1.69 µM	3.37 µM	2.35 µM	5.27 µM	1.54 µM	3.14 µM	1.95 µM	4.15 µM	2.28 µM	6.44 µM	1.65 µM	3.32 µM
Cc1ccc2c(c1)C(=O)c1c-2n(CCCN)c(=O)c2cc([N+](=O)[O-])ccc12	0.178 µM	0.913 µM	0.627 µM	1.31 µM	1.1 µM	3.6 µM	2.27 µM	4.63 µM	0.605 µM	1.26 µM	1.37 µM	4.15 µM	0.435 µM	1.18 µM	1.52 µM	4.97 µM	0.157 µM	0.461 µM	0.113 µM	0.836 µM
Cc1ccc2nc3c(C)c(Cl)c(=O)cc-3sc2c1	–	> 80.8 µM	–	73.7 µM	–	29.7 µM	–	99.2 µM	–	> 100 µM	–	37.5 µM	–	> 92.3 µM	–	53.8 µM	–	> 100 µM	–	61.8 µM
Nc1[nH]c(=O)ncc1F	–	> 100 µM	–	> 100 µM	–	> 100 µM	–	> 100 µM	–	> 100 µM	–	> 100 µM	–	> 100 µM	–	> 100 µM	–	> 100 µM	–	> 100 µM
CN(C)CCCNc1nn2c(=O)c3ccccc3nc2c2ccccc12	2.39 µM	13 µM	14.2 µM	30.6 µM	7.74 µM	20.9 µM	15.8 µM	29.3 µM	10.4 µM	22.4 µM	20.1 µM	43.8 µM	4.13 µM	59.3 µM	16 µM	32.6 µM	12.7 µM	33.6 µM	3.43 µM	15.6 µM
COc1ccccc1/C=C\c1cnnc2ccccc12	–	> 10 µM	–	> 10 µM	–	> 10 µM	–	> 10 µM	–	> 10 µM	–	> 10 µM	–	7.61 µM	–	> 10 µM	–	> 10 µM	–	> 10 µM
Cn1c2ccccc2c(=Nc2ccccc2)c2c3ccccc3[nH]c21	4.53 µM	18.8 µM	1.84 µM	4.05 µM	0.787 µM	2.06 µM	2.3 µM	6.17 µM	5.41 µM	22 µM	3.78 µM	> 100 µM	0.942 µM	2.39 µM	3.02 µM	16 µM	3.91 µM	> 100 µM	0.284 µM	1.86 µM
O=C1NC(=O)/C(=C/C=C/c2ccccc2)S1	14.4 µM	> 48.3 µM	4.95 µM	27.8 µM	2.58 µM	22.5 µM	15.5 µM	36 µM	80.8 µM	> 100 µM	24.4 µM	> 79.3 µM	11.1 µM	> 81.1 µM	5.43 µM	> 100 µM	12.8 µM	> 100 µM	1.36 µM	> 100 µM
Oc1ccc2oc3ncc(Cl)c(-c4ccccc4)c3c2c1	> 100 µM	> 100 µM	> 100 µM	> 100 µM	> 100 µM	> 100 µM	> 100 µM	> 100 µM	> 100 µM	> 100 µM	> 100 µM	> 100 µM	> 100 µM	> 100 µM	> 100 µM	> 100 µM	> 100 µM	> 100 µM	> 100 µM	> 100 µM
